Measurements taken from patent publication US20260226026A1, “COMPOUND AS CTPS1 INHIBITOR” (Hangzhou Innogate Pharma Co., Ltd., priority 2023, published 2026).

target: T1, hCTPS1 enzyme (Homo sapiens, UniProt P17812); experiment: Inhibition of CTPS1 enzyme activity (ADP-Glo method); assay type: biochemical; conditions: hCTPS1, 90 min reaction at 25° C.
T1 sequence (P17812 1-591): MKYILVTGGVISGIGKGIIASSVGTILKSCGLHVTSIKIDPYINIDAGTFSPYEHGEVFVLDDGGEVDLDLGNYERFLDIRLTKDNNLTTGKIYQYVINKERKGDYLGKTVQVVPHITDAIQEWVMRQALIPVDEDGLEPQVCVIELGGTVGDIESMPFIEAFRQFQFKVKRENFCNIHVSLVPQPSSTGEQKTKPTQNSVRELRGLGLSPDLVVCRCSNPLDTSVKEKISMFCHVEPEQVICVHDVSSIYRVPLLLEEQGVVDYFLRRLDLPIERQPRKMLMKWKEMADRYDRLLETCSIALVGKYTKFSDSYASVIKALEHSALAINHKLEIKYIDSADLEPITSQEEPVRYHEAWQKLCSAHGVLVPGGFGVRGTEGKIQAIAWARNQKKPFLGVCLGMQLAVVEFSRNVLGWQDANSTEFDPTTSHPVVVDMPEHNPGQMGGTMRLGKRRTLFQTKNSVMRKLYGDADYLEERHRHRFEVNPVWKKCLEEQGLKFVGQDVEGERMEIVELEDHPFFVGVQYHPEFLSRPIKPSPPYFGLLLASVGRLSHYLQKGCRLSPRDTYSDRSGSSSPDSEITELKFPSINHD
Procedure: The enzyme activity of CTPS1 was tested using the ADP-Glo method. Compounds were serially diluted in DMSO with 3-fold gradients across ten concentrations. Transfer 0.1 μL of diluted compound to a 384-well plate, centrifuge at 1000 rpm for 1 min. Add 2.5 μL of hCTPS1 enzyme working solution, centrifuge at 1000 rpm for 1 min, and incubate at 25° C. for 10 min. Add 2.5 μL of ATP & UTP solution and incubate at 25° C. for 10 min. Add 5 μL of substrate solution to initiate the reaction and incubate at 25° C. for 90 min. Add 10 μL of ADP-Glo solution to the 384-well plate, centrifuge at 1000 rpm for 1 min, incubate at 25° C. for 40 min, add 20 μL of detection solution, centrifuge at 1000 rpm for 1 min, and incubate at 25° C. for 60 min. […] were read using a BMG microplate reader. Inhibition rate (%) was calculated as follows: Inhibition rate (%)=[(DMSO control well signal−Compound well signal)/(DMSO control well signal−Blank control well signal)]×100%. IC50 values for compounds were analyzed by nonlinear regression in XLFit 5.5.0 software using the formula: Y=Bottom+(Top−Bottom)/(1+10^((LogIC50−X)*HillSlope)) where Y is the inhibition rate and X is the log value of compound concentration.

| Structure (SMILES) | IC50 |
| --- | --- |
| CCOc1cncc(-c2ccc(NC(=O)C3(c4ccnc(NS(=O)(=O)C5CC5)n4)CCC(=CCOC)CC3)nc2)n1 (single isomer, unassigned) [Compound 18] | < 50 nM |
| CCOc1cncc(-c2ccc(NC(=O)C3(c4ccnc(NS(=O)(=O)C5CC5)n4)CCC(=C(C)C)CC3)nc2)n1 (stereo not shown) [Compound 2] | < 50 nM |
| CCOc1cncc(-c2ccc(NC(=O)C3(c4ccnc(NS(=O)(=O)C5CC5)n4)CCC(=CC#N)CC3)nc2)n1 (stereo not shown) [Compound 8] | < 50 nM |
| CCOc1cncc(-c2ccc(NC(=O)C3(c4ccnc(NS(=O)(=O)C5CC5)n4)CCC(=CCN4CCOCC4)CC3)nc2)n1 (stereo not shown) [Compound 11] | < 25 nM |
| CCOc1cncc(-c2ccc(C(=O)NC3(c4ccnc(NS(=O)(=O)C5CC5)n4)CCC(=C(F)F)CC3)nc2)n1 (stereo not shown) [Compound 70] | < 200 nM |

system: Jurkat cells; experiment: Inhibition of Jurkat cell proliferation (CellTiter-Glo, 72 hours); assay type: cell-based; conditions: Homo sapiens; Jurkat cells, 72 hours, CellTiter-Glo; read-out: Jurkat (IC50)
Procedure: Select Jurkat cells in good growth condition and digest them with trypsin. Add fresh culture medium, mix thoroughly, and centrifuge at 1000 rpm for 5 minutes. Seed the cells into a 96-well plate at a density of 10,000 cells per well, and incubate overnight in a 37° C. incubator. On the following day, take out of the culture plate and treat the cells with compounds prepared in a five-fold serial dilution. Return the plate to the 37° C. incubator and continue incubation for 72 hours.
After incubation, bring out the cell culture plate and equilibrate it to room temperature. Add 100 μL of CellTiter-Glo reagent to each well, shake in the dark for 2 minutes, and incubate for 10 minutes. Measure the luminescence using an Enspire plate reader. Calculate the inhibition rate using the following formula: Inhibition rate (%)=(1−(RLU_compound−RLU_blank)/(RLU_DMSO−RLU_blank))×100%. Plot the dose-response curve and calculate the IC50 value using XLFit.

| Structure (SMILES) | IC50 |
| --- | --- |
| CCOc1cncc(-c2ccc(NC(=O)C3(c4ccnc(NS(=O)(=O)C5CC5)n4)CCC(=CCOC)CC3)nc2)n1 (single isomer, unassigned) [Compound 18] | < 50 nM |
| CCOc1cncc(-c2ccc(NC(=O)C3(c4ccnc(NS(=O)(=O)C5CC5)n4)CCC(=C(C)C)CC3)nc2)n1 (stereo not shown) [Compound 2] | < 50 nM |
| CCOc1cncc(-c2ccc(NC(=O)C3(c4ccnc(NS(=O)(=O)C5CC5)n4)CCC(=CCO)CC3)nc2)n1 (stereo not shown) [Compound 5] | < 15 nM |
| CCOc1cncc(-c2ccc(NC(=O)C3(c4ccnc(N(C)S(=O)(=O)C5CC5)n4)CCC(=CCO)CC3)nc2)n1 (stereo not shown) [Compound 6] | < 100 nM |
| O=C(Nc1ccc(-c2cncc(OC3CC(=C(F)F)C3)n2)cn1)C1(c2ccnc(NS(=O)(=O)C3CC3)n2)CCOCC1 (stereo not shown) [Compound 7] | < 750 nM |
| CCOc1cncc(-c2ccc(NC(=O)C3(c4ccnc(NS(=O)(=O)C5CC5)n4)CCC(=CC#N)CC3)nc2)n1 (stereo not shown) [Compound 8] | < 15 nM |
| C=C1CCC(C(=O)Nc2ccc(-c3cncc(OCC)n3)cn2)(c2ccnc(NS(=O)(=O)C3CC3)n2)CC1 [Compound 9] | < 50 nM |
| CCOc1cncc(-c2ccc(NC(=O)C3(c4ccnc(NS(=O)(=O)C5CC5)n4)CCC(=CCN4CCOCC4)CC3)nc2)n1 (stereo not shown) [Compound 11] | < 15 nM |
| CCOc1cncc(-c2ccc(NC(=O)C3(c4ccnc(NS(=O)(=O)C5CC5)n4)CCC(=CCOC)CC3)nc2)n1 (stereo not shown) [Compound 17] | < 200 nM |
| CCOc1cncc(-c2ccc(NC(=O)C3(c4ccnc(NS(=O)(=O)C5CC5)n4)CC(=CF)C3)nc2)n1 (stereo not shown) [Compound 20] | < 200 nM |
| CCOc1cncc(-c2ccc(NC(=O)C3(c4ccnc(NS(=O)(=O)C5CC5)n4)CCC(=CCc4ccccc4)CC3)nc2)n1 (stereo not shown) [Compound 21] | < 1000 nM |
| CCOc1cncc(-c2ccc(NC(=O)C3(c4ccnc(NS(=O)(=O)C5CC5)n4)CCN(c4cccnc4)CC3)nc2)n1 [Compound 25] | < 30 nM |
| CCOc1cncc(-c2ccc(NC(=O)C(=C3CCOCC3)c3ccnc(NS(=O)(=O)C4CC4)n3)nc2)n1 [Compound 33] | < 1000 nM |
| CCOc1cncc(-c2ccc(NC(=O)C3(c4ccnc(NS(=O)(=O)C5CC5)n4)CCN(c4ccncc4)CC3)nc2)n1 [Compound 35] | < 200 nM |
| CCOc1cncc(-c2ccc(NC(=O)C3(c4ccnc(NS(=O)(=O)C5CC5)n4)CCC(=Cc4ccccn4)CC3)nc2)n1 (stereo not shown) [Compound 38] | < 30 nM |
| CCOc1cncc(-c2ccc(NC(=O)C3(c4ccnc(NS(=O)(=O)C5CC5)n4)CCC(=CC(N)=O)CC3)nc2)n1 (stereo not shown) [Compound 40] | < 200 nM |
| CCOc1cncc(-c2ccc(NC(=O)C3(c4ccnc(NS(=O)(=O)C5CC5)n4)CCC(=CCN)CC3)nc2)n1 (stereo not shown) [Compound 41] | < 100 nM |

| Structure (SMILES) | IC50 |
| --- | --- |
| CCOc1cncc(-c2ccc(NC(=O)C3(c4ccnc(NS(=O)(=O)C5CC5)n4)CCC(=Cc4ccoc4)CC3)nc2)n1 (stereo not shown) [Compound 42] | < 50 nM |
| CCOC(=O)C(F)=C1CCC(C(=O)Nc2ccc(-c3cncc(OCC)n3)cn2)(c2ccnc(NS(=O)(=O)C3CC3)n2)CC1 (stereo not shown) [Compound 43] | < 50 nM |
| CCOc1cncc(-c2ccc(NC(=O)C3(c4ccnc(NS(=O)(=O)C5CC5)n4)CCC(=C(F)C#N)CC3)nc2)n1 (stereo not shown) [Compound 49] | < 50 nM |
| CCOc1cncc(-c2ccc(NC(=O)C3(c4ccnc(NS(=O)(=O)C5CC5)n4)CCC(=C(C)C4COC4)CC3)nc2)n1 (stereo not shown) [Compound 51] | < 30 nM |
| CCOc1cncc(-c2ccc(NC(=O)C3(c4ccnc(NS(=O)(=O)C5CC5)n4)CCC(=Cc4ccsc4)CC3)nc2)n1 (stereo not shown) [Compound 53] | < 100 nM |
| CCOc1cncc(-c2ccc(NC(=O)C3(c4ccnc(NS(=O)(=O)C5CC5)n4)CCC(=Cc4cncnc4)CC3)nc2)n1 (stereo not shown) [Compound 56] | < 50 nM |
| CCOc1cncc(-c2ccc(NC(=O)C3(c4ccnc(NS(=O)(=O)C5CC5)n4)CCC(=CC(C)(C)O)CC3)nc2)n1 (stereo not shown) [Compound 57] | < 50 nM |
| CCOc1cncc(-c2ccc(NC(=O)C3(c4ccnc(NS(=O)(=O)C5CC5)n4)CCC(=CC4CC(O)C4)CC3)nc2)n1 (stereo not shown) [Compound 59] | < 15 nM |
| CCOc1cncc(-c2ccc(NC(=O)C3(c4ccnc(NS(=O)(=O)C5CC5)n4)CCC(=CC(C)=O)CC3)nc2)n1 (stereo not shown) [Compound 60] | < 30 nM |
| CCOc1cncc(-c2ccc(NC(=O)C3(c4ccnc(NS(=O)(=O)C5CC5)n4)CCC(=C(F)C(C)=O)CC3)nc2)n1 (stereo not shown) [Compound 61] | < 50 nM |
| CCOc1cncc(-c2ccc(NC(=O)C3(c4ccnc(NS(=O)(=O)C5CC5)n4)CCC4(CC3)CC(=C(F)F)C4)nc2)n1 (stereo not shown) [Compound 64] | < 50 nM |
| CCOc1cncc(-c2ccc(NC(=O)C3(c4ccnc(NS(=O)(=O)C5CC5)n4)CCC(=C(F)F)CC3)c(F)c2)n1 (stereo not shown) [Compound 65] | < 50 nM |
| CCOc1cncc(-c2ccc(NC(=O)C3(c4nccc(NS(=O)(=O)C5CC5)n4)CCC(=C(F)F)CC3)nc2)n1 (stereo not shown) [Compound 66] | < 50 nM |
| CCOc1cncc(-c2cnc(NC(=O)C3(c4ccnc(NS(=O)(=O)C5CC5)n4)CCC(=C(F)F)CC3)c(F)c2)n1 (stereo not shown) [Compound 71] | < 200 nM |
| CCOc1cncc(-c2cnc(C(=O)NC3(c4ccnc(NS(=O)(=O)C5CC5)n4)CCC(=C(F)F)CC3)s2)n1 (stereo not shown) [Compound 72] | < 200 nM |
| CCOc1cncc(-c2ccc(NC(=O)C3(c4csc(NS(=O)(=O)C5CC5)n4)CCC(=C(F)F)CC3)nc2)n1 (stereo not shown) [Compound 73] | < 30 nM |

system: not listed separately; experiment: in vivo; set-up: species or system SD rats; conditions: male, SD, rat, po, 2 mg/kg
Procedure: Instrumentation: SCIEX Triple Quad 6500+ triple quadrupole liquid chromatography-mass spectrometry system (LC-MS/MS), operating software is Analyst 1.7.2 (Applied Biosystems, USA); ExionLC liquid chromatography system; Microsoft Excel was used for data calculation and processing. Pharmacokinetic parameters were calculated using the statistical moment method with WinNonlin 8.2 software. Key kinetic parameters included Tmax, T1/2, Cmax, AUC0-24 h etc. Column: Synergi 4 μm Fusion-RP 80 Å Luna C18 2 mm*50 mm, 4 μm; Column temperature: 40° C.; Mobile phase A: Water (0.1% formic acid); Mobile phase B: Acetonitrile; Flow rate: 0.8 mL/min; Gradient elution is adopted, the elution gradient is 0.10 min: 15% B; 1.60 min: 95% B; 1.90 min: 95% B; 1.91 min: 15% B; 2.20 min: 15% B. Injection volume: 1 μL.
Animals: 3 male SD rats with a weight range of 200-220 g were purchased and kept in the laboratory of the Experimental Animal Center for 3 days and then used. They were fasted for 12 hours predose and 4 hours after dosing. Drinking water was free during the test. After the rats were gavage, blood samples were taken according to the established time point.
Solvent: 0.4% ethanol+0.4% Tween80+99.2% (0.5% methylcellulose M450). Preparation of the solution for intragastric administration: Compounds were accurately weighed and added to the solvent. The mixture was then subjected to vortex mixing and sonication until a homogeneous suspension was achieved, thereby preparing medicinal solutions of the desired concentrations.
Compound samples: Typically, multiple structurally analogous compounds (with molecular weights differing by more than 2 units) were accurately weighed and administered together (cassette PK). This approach allows for the simultaneous screening of multiple compounds and comparison of their oral absorption rates. Single compound administration was also employed to study the pharmacokinetics of drug samples in rats.
After intragastric administration, blood was collected from the jugular vein at 0.25, 0.5, 1, 2, 4, 8, 10 and 24 hours. Transfer 20 μL of plasma sample (for blank samples and internal standard blank samples, add 20 μL of blank plasma) to a 1.5 mL centrifuge tube, add 200 μL of internal standard solution (50% methanol in acetonitrile (concentration 100 ng/mL)) (for Double blank samples, add 200 μL of 50% methanol in acetonitrile solution). Vortex the samples for 5 minutes, then centrifuge at 14000 rpm and 4° C. for 5 minutes. Transfer 80 μL and add to 80 μL of water, mix uniformly, and submit for LC-MS/MS analysis.
The compounds were accurately weighed to prepare different concentrations, and quantitative analysis on mass spectrometry was performed to establish a standard curve, and then the concentration of the above-mentioned compound in the plasma was tested to obtain its concentration at different time points. All measurement data were collected and processed by relevant software, and the statistical moment method was used to calculate the pharmacokinetic parameters (mainly including kinetic parameters Tmax, T1/2, Cmax, AUC0-24 h etc).

| Structure (SMILES) | AUC(0-t) | Cmax | Tmax | half-life |
| --- | --- | --- | --- | --- |
| CCOc1cncc(-c2ccc(NC(=O)C3(c4ccnc(NS(=O)(=O)C5CC5)n4)CCC(=C(C)C4COC4)CC3)nc2)n1 (stereo not shown) [Compound 51] | 62.7 ng·h/mL | 14.5 ng/mL | 4 h | 1.56 h |

same assay, conditions: male, SD, rat, po, 3 mg/kg

| Structure (SMILES) | AUC(0-t) | Cmax | Tmax | half-life |
| --- | --- | --- | --- | --- |
| CCOc1cncc(-c2ccc(NC(=O)C3(c4ccnc(NS(=O)(=O)C5CC5)n4)CCC(=CCO)CC3)nc2)n1 (stereo not shown) [Compound 5] | 417 ng·h/mL | 359 ng/mL | 0.25 h | 1.73 h |
